What was measured:
Format in all cases: cell-based
A498 = assay: NCI COMPARE panel (SRB growth inhibition), A498; conditions: Homo sapiens; Renal Cancer, A498, 48 h
Experimental: (§1) The human tumor cell lines of the cancer screening panel are grown in RPMI 1640 medium containing 5% fetal bovine serum and 2 mM L-glutamine. For a typical screening experiment, cells are inoculated into 96 well microtiter plates in 100 µL at plating densities ranging from 5,000 to 40,000 cells/well depending on the doubling time of individual cell lines. After cell inoculation, the microtiter plates are incubated at 37° C., 5% CO2, 95% air and 100% relative humidity for 24 h prior to addition of experimental drugs.
(§2) After 24 h, two plates of each cell line are fixed in situ with TCA, to represent a measurement of the cell population for each cell line at the time of drug addition (Tz). Experimental drugs are solubilized in dimethyl sulfoxide at 400-fold the desired final maximum test concentration and stored frozen prior to use. […]
(§3) Following drug addition, the plates are incubated for an additional 48 h at 37° C., 5 % CO2, 95% air, and 100% relative humidity. […] Bound stain is subsequently solubilized with 10 mM trizma base, and the absorbance is read on an automated plate reader at a wavelength of 515 nm. […] Using the seven absorbance measurements [time zero, (Tz), control growth, (C), and test growth in the presence of drug at the five concentration levels (Ti)], the percentage growth is calculated at each of the drug concentrations levels. Percentage growth inhibition is calculated as: […]

SK-OV3 = assay: NCI COMPARE panel (SRB growth inhibition), SK-OV3; conditions: Homo sapiens, SK-OV-3; Ovarian Cancer, SK-OV3, 48 h
Experimental: as §1, §2, §3

NCI-H522 = assay: NCI COMPARE panel (SRB growth inhibition), NCI-H522; conditions: Homo sapiens; Non-Small Cell Lung Cancer, NCI-H522, 48 h
Experimental: as §1, §2, §3

SK-MEL-28 = assay: NCI COMPARE panel (SRB growth inhibition), SK-MEL-28; conditions: Homo sapiens; Melanoma, SK-MEL-28, 48 h
Experimental: as §1, §2, §3

HOP-62 = assay: NCI COMPARE panel (SRB growth inhibition), HOP-62; conditions: Homo sapiens; Non-Small Cell Lung Cancer, HOP-62, 48 h
Experimental: as §1, §2, §3

RPMI-8226 = assay: NCI COMPARE panel (SRB growth inhibition), RPMI-8226; conditions: Homo sapiens; Leukemia, RPMI-8226, 48 h
Experimental: as §1, §2, §3

OVCAR-4 = assay: NCI COMPARE panel (SRB growth inhibition), OVCAR-4; conditions: Homo sapiens; Ovarian Cancer, OVCAR-4, 48 h
Experimental: as §1, §2, §3

IGROV1 = assay: NCI COMPARE panel (SRB growth inhibition), IGROV1; conditions: Homo sapiens, IGROV-1; Ovarian Cancer, IGROV1, 48 h
Experimental: as §1, §2, §3

DU-145 = assay: NCI COMPARE panel (SRB growth inhibition), DU-145; conditions: Homo sapiens; Prostate Cancer, DU-145, 48 h
Experimental: as §1, §2, §3

| SMILES | GI50 (A498) [nM] | GI50 (SK-OV3) [nM] | GI50 (NCI-H522) [nM] | GI50 (SK-MEL-28) [nM] | GI50 (HOP-62) [nM] | GI50 (RPMI-8226) [nM] | GI50 (OVCAR-4) [nM] | GI50 (IGROV1) [nM] | GI50 (DU-145) [nM] |
| --- | --- | --- | --- | --- | --- | --- | --- | --- | --- |
| CS(=O)(=O)Nc1cc(-c2ccc3ncnc(Nc4cccc(Cl)c4F)c3c2)cnc1Cl [Compound 6, N-[2-chloro-5-[4-(3-chloro-2-fluoro-anilino)quinazolin-6-yl]-3-pyridyl] methanesulfonamide] | ≤ 75 | 75 to 125 | 125 to 250 | 75 to 125 | 75 to 125 | 125 to 250 | > 250 | ≤ 75 | 125 to 250 |
| CS(=O)(=O)Nc1cc(-c2ccc3ncc(C#N)c(Nc4cccc(Cl)c4F)c3c2)cnc1Cl [Compound 10, N-[2-chloro-5-[4-(3-chloro-2-fluoro-anilino)-3-cyano-6-quinolyl]-3-pyridyl]methanesulfonamide] | ≤ 75 | > 250 | > 250 | 125 to 250 | 125 to 250 | ≤ 75 | > 250 | 75 to 125 | 125 to 250 |

Source: patent US20230133958A1, “COMPOUNDS USEFUL IN MODULATING EGFR AND PI3K” (Mekanistic Therapeutics LLC, priority 2021, published 2023)
